Values joined by “and” are separate entries in the source; they are usually repeats but may differ in a detail not shown here. Equal values may be shown once.
Experiments:
[1] = 101 kPa; for speed of sound: Frequency=3 MHz, Sing-around technique in a fixed-path interferometer; for mass density: Vibrating tube method
[2] = xn = mol fraction of the nth substance listed; details: 101 kPa, Liquid; for speed of sound: Frequency=3 MHz, Sing-around technique in a fixed-path interferometer; for mass density: Vibrating tube method

O=C1CCCN1 [2-pyrrolidinone]
[1], Metastable liquid
Details | mass density [kg/m3] | speed of sound [m/s]
293.15 K | 1111.44 | 1649.3
298.15 K | 1107.35 | 1632.9
301.15 K | 1104.88 | –
303.15 K | 1103.26 | 1616.7
308.15 K | 1099.17 | 1600.5
313.15 K | 1095.08 | 1584.5
318.16 K | 1091 | 1568.6
323.16 K | 1086.92 | 1552.8

CN1CCCC1=O [N-methylpyrrolidone]
[1], Liquid
Details | mass density | speed of sound
293.15 K | 1032.25 kg/m3 and 1032.51 kg/m3 | 1564.7 m/s
298.14 K | 1028.07 kg/m3 | 1545.5 m/s
298.15 K | 1027.79 kg/m3 | 1544.6 m/s
303.14 K | 1023.61 kg/m3 | 1526.1 m/s
303.15 K | 1023.33 kg/m3 | 1525.3 m/s
308.15 K | 1019.15 kg/m3 and 1018.87 kg/m3 | 1506 m/s and 1506.9 m/s
313.15 K | 1014.41 kg/m3 | 1486.8 m/s
318.15 K | 1009.95 kg/m3 | 1467.8 m/s
323.16 K | 1005.48 kg/m3 | 1448.9 m/s

CN1CCCC1=O [N-methylpyrrolidone] + ClC(Cl)Cl
[2], x1 = 1
Details | mass density [kg/m3] | speed of sound [m/s]
293.15 K | 1032.51 | 1564.7
298.14 K | 1028.07 | 1545.5
303.14 K | 1023.61 | 1526.1
308.15 K | 1019.15 | 1506.9

CC#N [acetonitrile]
[1], Liquid
Details | mass density | speed of sound
293.15 K | 781.989 kg/m3 | –
298.15 K | 776.609 kg/m3 and 776.616 kg/m3 | 1278.9 m/s and 1278.6 m/s
303.15 K | 771.183 kg/m3 and 771.178 kg/m3 | 1259 m/s and 1258.4 m/s
308.15 K | 765.722 kg/m3 and 765.719 kg/m3 | 1239.1 m/s and 1238.3 m/s
313.15 K | 760.223 kg/m3 and 760.231 kg/m3 | 1219.3 m/s and 1218.2 m/s
318.15 K | 754.709 kg/m3 | 1199.5 m/s
318.16 K | 754.702 kg/m3 | 1198.1 m/s
323.16 K | 749.144 kg/m3 and 749.15 kg/m3 | 1178 m/s and 1179.6 m/s

CC#N [acetonitrile] + CN1CCCC1=O
[2], x2 = 0
Details | mass density [kg/m3] | speed of sound [m/s]
293.15 K | 781.989 | –
298.15 K | 776.616 | 1278.6
303.15 K | 771.178 | 1258.4
308.15 K | 765.719 | 1238.3
313.15 K | 760.223 | 1218.2
318.16 K | 754.702 | 1198.1
323.16 K | 749.144 | 1178

CC#N [acetonitrile] + O=C1CCCN1
[2], x2 = 0
Details | mass density [kg/m3] | speed of sound [m/s]
298.15 K | 776.609 | 1278.9
303.15 K | 771.183 | 1259
308.15 K | 765.722 | 1239.1
313.15 K | 760.231 | 1219.3
318.15 K | 754.709 | 1199.5
323.16 K | 749.15 | 1179.6

ClC(Cl)Cl [trichloromethane]
[1], Liquid
Details | mass density | speed of sound
293.15 K | 1487.52 kg/m3 and 1488.55 kg/m3 | 1001.5 m/s and 1000.9 m/s
295.15 K | 1483.74 kg/m3 | –
297.15 K | 1479.93 kg/m3 | –
298.15 K | 1478.02 kg/m3 and 1479.07 kg/m3 | 984.65 m/s and 984.33 m/s
303.15 K | 1468.47 kg/m3 | 967.76 m/s
303.16 K | 1469.52 kg/m3 | 967.53 m/s
308.15 K | 1459.91 kg/m3 | 950.62 m/s
308.16 K | 1458.85 kg/m3 | 950.87 m/s

ClC(Cl)Cl [trichloromethane] + O=C1CCCN1
[2], x2 = 0
Details | mass density [kg/m3] | speed of sound [m/s]
293.15 K | 1487.52 | 1001.5
295.15 K | 1483.74 | –
297.15 K | 1479.93 | –
298.15 K | 1478.02 | 984.65
303.15 K | 1468.47 | 967.76
308.16 K | 1458.85 | 950.87

Source: the NIST ThermoML archive (doi:10.1021/acs.jced.5b00474)
